pIC50: −log10 of the molar value. Counter-ions that a name gives are not always drawn. Some results are limits rather than exact numbers.

Series [1] has as its target T1, γ-secretase (Homo sapiens, UniProt P49768).
T1 construct: endogenous in cells; host or cells: SKNBE2 human neuroblastoma cells (carrying hAPP 695 wild type as substrate)
Nature of the series: Screening for γ-secretase-modulating activity: Aβ42 in supernatant of SKNBE2 cells carrying hAPP 695 wild type (Alphalisa). Format: cell-based. As to conditions: SKNBE2 human neuroblastoma cells carrying hAPP 695 wild type, overnight incubation, Aβ42 in cell supernatant. The method in brief:
(§1)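 SKNBE2 neuroblastoma cells expressing wild-type hAPP 695 plated at 10^4 cells/well in Ultraculture with test compound, incubated overnight at 37° C. Aβ42 (C-terminal/N-terminal antibody pair) and Aβtotal (N-terminal/4G8 pair) in supernatant quantified by AlphaLISA. IC50 from 4-parameter fit of percent of compound-free control.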
A general note: In Alpha technology, singlet oxygen from a donor bead excites a nearby acceptor bead.

Series [2] deals with T1, γ-secretase. Nature of the series: Screening for γ-secretase-modulating activity: Aβtotal in supernatant of SKNBE2 cells carrying hAPP 695 wild type (Alphalisa). Format: cell-based. As to conditions: SKNBE2 human neuroblastoma cells carrying hAPP 695 wild type, overnight incubation, Aβtotal in cell supernatant. The method in brief:
as §1

For the compound `Cc1cn(-c2ccc3n(c2=O)C[C@@H](C)N(Cc2cc(Cl)cc(Cl)c2)C3=O)cn1` [compound 131], the melting point (usually the temperature, or range, at which the solid turns liquid) stood at 170.7 °C. Moreover, on γ-secretase [1], the pIC50 (as a rule, the IC50 on a negative log10 scale, so that one unit is a factor of ten) was 6.70. In addition, at γ-secretase [2], the pIC50 was less than 5.00.
On to `Cc1cn(-c2cc(Cl)c3n(c2=O)CCN(Cc2cccc(-c4ccccc4)c2)C3=O)cn1` [compound 88], for which the melting point worked out at 136.5 °C. Besides, the pIC50 against γ-secretase [1] was 5.73. The compound further showed a pIC50 against γ-secretase [2] of less than 5.00.
The corresponding values for `Cc1cn(-c2ccc3n(c2=O)CCN(Cc2cn(C)c4c(Cl)cc(Cl)cc24)C3=O)cn1` [compound 259] are 230 °C, 7.70 and 5.22.
`Cc1ncn(-c2ccc3n(c2=O)CCN(Cc2cccc(C(F)(F)F)c2)C3=O)n1` [compound 120] had a melting point of 194.9 °C. Besides, the pIC50 at γ-secretase [1] was 5.21. Also, the pIC50 at γ-secretase [2] was less than 5.00.
For `Cc1cn(-c2ccc3n(c2=O)CCN(Cc2ccc(OC(F)(F)F)cc2C)C3=O)cn1` [compound 75], the melting point worked out at 214.1 °C. The compound also showed a pIC50 against γ-secretase [1] of 6.01. This compound also gave a pIC50 on γ-secretase [2] of less than 5.00.
The matching figures for `Cc1cn(-c2ccc3n(c2=O)C[C@@H](C)N(CCc2cc(Cl)ccc2Cl)C3=O)cn1` [compound 230]: 192 °C, 6.68 and less than 5.00.
The corresponding values for `Cc1cn(-c2ccc3n(c2=O)CCCN(Cc2ccc(Cl)c(Cl)c2)C3=O)cn1` [compound 121] are 173.4 °C, 6.42 and less than 5.00.
The corresponding values for `Cc1cn(-c2ccc3n(c2=O)CCN(c2ccccc2C)C3=O)cn1` [compound 102] are 222.2 °C, less than 5.00 and less than 5.00.
Regarding `Cc1cn(-c2ccc3n(c2=O)CCN(CCc2ccc(Cl)cc2)C3=O)cn1` [compound 26], the melting point came out at 184.4 °C. Besides, at γ-secretase [1], the negative-log IC50 (pIC50) is 5.78. The same compound had a pIC50 against γ-secretase [2] of less than 5.00.
In turn, `Cc1cn(-c2ccc3n(c2=O)C[C@@H](C)N(Cc2ccccc2C)C3=O)cn1` [compound 21] returned a melting point of 163 °C. In addition, the pIC50 on γ-secretase [1] is 5.71. The compound also showed a pIC50 against γ-secretase [2] of less than 5.00.
The matching figures for `Cc1cn(-c2ccc3n(c2=O)CCN(Cc2cccc(-c4ccc(F)cc4C(F)(F)F)c2)C3=O)cn1` [compound 90]: 138 to 143 °C, 7.15 and less than 5.00.
With `Cc1cn(-c2ccc3n(c2=O)CCN(C(C)c2cccc(C(F)(F)F)c2)C3=O)cn1` (single isomer, unassigned) [11a], the melting point worked out at 181.1 °C. The pIC50 against γ-secretase [1] was 6.18. For the same compound, at γ-secretase [2], the pIC50 is less than 5.00.
On to `Cc1cn(-c2ccc3n(c2=O)CC(C)N(C(C)c2cn(C)c4cc(F)c(Cl)cc24)C3=O)cn1` (single isomer, unassigned) [compound 190], for which the melting point was found to be 255 °C. Further, the pIC50 against γ-secretase [1] was 8.00. The pIC50 against γ-secretase [2] is 5.48.
Compound `Cc1cn(-c2ccc3n(c2=O)CCN(Cc2c[nH]c4c(Cl)cc(Cl)cc24)C3=O)cn1` [compound 260] had a melting point of 208 °C. Moreover, the pIC50 against γ-secretase [1] is 7.52.
As to `Cc1cn(-c2ccc3n(c2=O)CCN(C(C)c2cccc(Cl)c2Cl)C3=O)cn1` (single isomer, unassigned) [10b], the melting point turned out to be 206.4 °C. At γ-secretase [1], the pIC50 is 5.18. In addition, the pIC50 against γ-secretase [2] was less than 5.00.
Take `Cc1cncn1-c1ccc2n(c1=O)CCN(Cc1ccccc1)C2=O` [compound 89]: the melting point came to 146.5 °C. Moreover, the pIC50 against γ-secretase [1] is less than 5.00. Besides, the pIC50 against γ-secretase [2] is less than 5.00.
Turning to `Cc1cn(-c2ccc3n(c2=O)CCN(Cc2cc(OC(C)C)cc(C(F)(F)F)c2)C3=O)cn1` [compound 160], the melting point turned out to be 171.7 °C. The compound also showed a pIC50 against γ-secretase [1] of 6.72. The pIC50 against γ-secretase [2] was less than 5.00.
The matching figures for `Cc1cn(-c2ccc3n(c2=O)CCN(C2CCCc4ccc(C(F)(F)F)cc42)C3=O)cn1` (centres unmarked) [compound 106]: 189.4 °C, 6.14 and less than 5.00.
The matching figures for `Cc1cn(-c2ccc3n(c2=O)CCN(C2CCCc4c2cccc4C(F)(F)F)C3=O)cn1` (centres unmarked) [compound 107]: 257.3 °C, 5.61 and less than 5.00.
The corresponding values for `Cc1cn(-c2ccc3n(c2=O)C[C@@H](C)N(Cc2cn(C)c4cc(Cl)c(Cl)cc24)C3=O)cn1` [compound 255] are 265 °C, 8.00 and 5.52.
For the compound `Cc1cn(-c2ccc3n(c2=O)CCN(C(C)c2cn(C)c4cc(F)c(Cl)cc24)C3=O)cn1` (single isomer, unassigned) [compound 186], the melting point amounted to 261 °C. For the same compound, the pIC50 on γ-secretase [1] is 6.11. Also, the pIC50 at γ-secretase [2] was less than 5.00.
The matching figures for `Cc1cn(-c2ccc3n(c2=O)CC(C)N(C(C)c2cn(C)c4c(F)cc(Cl)cc24)C3=O)cn1` (single isomer, unassigned) [compound 223]: 243 °C, 6.66 and 5.18.
The corresponding values for `COc1ccc(CN2CCn3c(ccc(-n4cnc(C)c4)c3=O)C2=O)cc1C(F)(F)F` [compound 69] are 177 °C, 5.99 and less than 5.00.
The corresponding values for `Cc1cn(-c2ccc3n(c2=O)C[C@@H](C)N(Cc2cn(C(C)C)c4cc(Br)ccc24)C3=O)cn1` [compound 200] are 181 °C, 7.70 and less than 5.00.
`Cc1cn(-c2ccc3n(c2=O)CCN(Cc2cc(C(F)(F)F)cc(C(F)(F)F)c2)C3=O)cn1` [compound 53] yielded a melting point of 219 °C. This compound showed a pIC50 on γ-secretase [1] of 6.68. In addition, at γ-secretase [2], the pIC50 was less than 5.00.
The corresponding values for `Cc1cn(-c2ccc3n(c2=O)CCN(C(C)c2cc(F)cc(C(F)(F)F)c2)C3=O)cn1` (centres unmarked) [compound 168] are 225.6 °C, 5.85 and less than 5.00.
`Cc1cn(-c2ccc3n(c2=O)CCN(Cc2cccc(C(F)(F)F)c2C)C3=O)cn1` [compound 58]: the melting point stood at 199.4 °C. On γ-secretase [1], this compound showed a negative-log IC50 (pIC50) of 6.08. Also, the negative logarithm of the IC50 (pIC50) at γ-secretase [2] is less than 5.00.
The matching figures for `Cc1cn(-c2ccc3n(c2=O)CCN(CCC2COc4ccccc4O2)C3=O)cn1` (centres unmarked) [compound 103]: 176.8 °C, 5.61 and less than 5.00.
`Cc1cn(-c2ccc3n(c2=O)C[C@@H](C)N(C(C)c2cccc(OC(F)(F)F)c2)C3=O)cn1` (single isomer, unassigned) (as salt: HCl) [compound 147] gave a melting point of 232.9 °C.
Same read-out and setting: then `Cc1cn(-c2ccc3n(c2=O)C[C@@H](C)N(Cc2ccc(C)c(-n4cccn4)c2)C3=O)cn1` (as salt: HCl) [compound 114], with 126.9 °C.
Same read-out and setting: then `CCOc1cc(C(C)N2C(=O)c3ccc(-n4cnc(C)c4)c(=O)n3C[C@H]2C)cc(C(F)(F)F)c1` (single isomer, unassigned) (as salt: HCl) [compound 143], with 229.3 °C.
The same measure, in the same setting: then `Cc1cn(-c2ccc3n(c2=O)C[C@@H](C)N(Cc2cc(N4CCC(C)CC4)ccc2Cl)C3=O)cn1` (as salt: HCl) [compound 80], with 235.1 °C; and `CCC(c1cc(OC)cc(C(F)(F)F)c1)N1C(=O)c2ccc(-n3cnc(C)c3)c(=O)n2C[C@H]1C` (single isomer, unassigned) (as salt: HCl) [compound 142], with 141.4 °C.
As for `Cc1cn(-c2ccc3n(c2=O)C[C@@H](C)N(Cc2cc(OCC(F)(F)F)cc(C(F)(F)F)c2)C3=O)cn1` (as salt: HCl) [compound 166], the melting point came out at 137.5 °C.
Same read-out and setting: then `Cc1cn(-c2ccc3n(c2=O)C[C@@H](C)N(Cc2cc(N4CCCC4)ccc2Cl)C3=O)cn1` (as salt: HCl) [compound 82], with 233.6 °C.
Same read-out and setting: the value for `CCOc1cc(C(C)N2C(=O)c3ccc(-n4cnc(C)c4)c(=O)n3C[C@H]2C)cc(C(F)(F)F)c1` (single isomer, unassigned) (as salt: HCl) [compound 144] was 194.4 °C.
Still for that read-out and setting: the value for `Cc1cn(-c2ccc3n(c2=O)C[C@@H](C)N(Cc2cc(CC(F)(F)F)cc(C(F)(F)F)c2)C3=O)cn1` (as salt: HCl) [compound 134] was 136 °C.
As to `Cc1cn(-c2ccc3n(c2=O)C[C@@H](C)N(Cc2ccc(C(F)(F)F)c(N4CCCCC4)c2)C3=O)cn1` (as salt: HCl) [compound 171], the melting point came out at 130.6 °C.
On the same count and under the same terms, then `Cc1cn(-c2ccc3n(c2=O)C[C@@H](C)N(Cc2cc(OC(F)(F)F)cc(C(F)(F)F)c2)C3=O)cn1` (as salt: HCl) [compound 140], with 115.2 °C.
Consider `Cc1cn(-c2ccc3n(c2=O)C[C@@H](C)N(Cc2cc(OC(C)C)nc(C(F)(F)F)c2)C3=O)cn1` (as salt: HCl) [compound 128], for which the melting point amounted to 116.9 °C.
The same measure, in the same setting: then `Cc1cn(-c2ccc3n(c2=O)C[C@@H](C)N(Cc2cn(C)c4ccc(OC(F)(F)F)cc24)C3=O)cn1` (as salt: HCl) [compound 253], with 190 °C; and `Cc1cn(-c2ccc3n(c2=O)C[C@@H](C)N(C(C)c2cc(CC4CC4)cc(C(F)(F)F)c2)C3=O)cn1` (single isomer, unassigned) (as salt: HCl) [compound 135], with 213.2 °C; and `Cc1cn(-c2ccc3n(c2=O)C[C@@H](C)N(Cc2cc(N4CCC(C(F)(F)F)CC4)ccc2Cl)C3=O)cn1` (as salt: HCl) [compound 81], with 160.6 °C.

These data come from patent US20150141411A1, “SUBSTITUTED 3,4-DIHYDRO-2H-PYRIDO[1,2-A]PYRAZINE-1,6-DIONE DERIVATIVES USEFUL FOR THE TREATMENT OF (INTER ALIA) ALZHEIMER'S DISEASE” (Janssen Pharmaceuticals, Inc., priority 2012, published 2015).
